Patent US20170334899A1, “AMINO-SUBSTITUTED ISOTHIAZOLES” (Bayer Pharma Aktiengesellschaft, priority 2014, published 2017)

Tests used:
HeLa = test: Proliferation assay (crystal violet), HeLa; format: cell-based; details: Homo sapiens, HeLa, 96 h, HeLa cells; 4 days incubation; crystal violet staining; read-out: IC50 inhibition of proliferation, HeLa
Method in brief: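 Cells plated at 1000-5000/well with 10% FCS, treated after 24 h with compound at 0.001-10 μM (0.5% DMSO) for 4 days. Glutaraldehyde-fixed, crystal violet-stained, A595 normalised to zero-point plate (0%) and untreated cells (100%); IC50 by 4-parameter fit.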

[1] = system: human cervical tumor cell line HeLa (ATCC CCL-2); test: SAC-Formation - Nocodazole-Induced Assay; format: cell-based; details: Homo sapiens, HeLa, 24 h, HeLa cells, nocodazole 0.1 μg/ml together with test compound, decrease of mitotic cells (phospho-histone H3 Ser10)
Method in brief: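 HeLa cells, plated overnight, were treated 24 h at 37 °C with nocodazole (0.1 μg/ml final) plus test compound (0.005–20 μM, 0.5% DMSO) added at the same time. After fixation, anti-phospho-histone H3 Ser10 and Hoechst staining gave the mitotic cell fraction by imaging. Values came from four-parameter Hill fits.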

| Structure (SMILES) | IC50 (HeLa) | IC50 [1] |
| --- | --- | --- |
| Cc1nsc(Nc2ccc(C#N)cn2)c1C(=O)Nc1ccc(OC2CCNCC2)nc1 [Example 28, 5-[(5-Cyanopyridin-2-yl)amino]-3-methyl-N-[6-(piperidin-4-yloxy)pyridin-3-yl]-1,2-thiazole-4-carboxannide] | 3700 nM | 11000 nM |
| Cc1nsc(Nc2ccc(C#N)cn2)c1C(=O)Nc1ccc(OC2CCN(CCF)CC2)nc1 [Example 29, 5-[(5-Cyanopyridin-2-yl)amino]-N-(6-{[1-(2-fluoroethyl)piperidin-4-yl]oxy}pyridin-3-yl)-3-methyl-1,2-thiazole-4-carboxamide] | 10000 nM | 16000 nM |
| Cc1nsc(Nc2cnc3ccccc3n2)c1C(=O)Nc1ccc(OC2CCCNC2)nc1 (stereo not shown) [Example 32, 3-Methyl-N-[6-(piperidin-3-yloxy)pyridin-3-yl]-5-(quinoxalin-2-ylamino)-1,2-thiazole-4-carboxannide] | 8000 nM | 4000 nM |
| Cc1nsc(Nc2cnc3ccccc3n2)c1C(=O)Nc1ccc(OC2CCCN(CC(F)F)C2)nc1 (stereo not shown) [Example 33, N-(6-{[1-(2,2-Difluoroethyl)piperidin-3-yl]oxy}pyridin-3-yl)-3-methyl-5-(quinoxalin-2-ylamino)-1,2-thiazole-4-carboxamide] | 2400 nM | 1400 nM |
| Cc1nsc(Nc2cc(C#N)ccn2)c1C(=O)Nc1ccc(OC2CCCN(C(=O)OC(C)(C)C)C2)nc1 (stereo not shown) [Example 34, tert-Butyl 3({5-[({5-[(4-cyanopyridin-2-yl)amino]-3-methyl-1,2-thiazol-4-yl}-carbonyl)amino]pyridin-2-yl}oxy)piperidine-1-carboxylate] | 3100 nM | 280 nM |
| Cc1nsc(Nc2cnc(C(F)(F)F)cn2)c1C(=O)Nc1ccc(OCCNCCC(F)(F)F)nc1 [Example 323, 3-methyl-5-{[5-(trifluoromethyl)pyrazin-2-yl]amino}-N-(6-{2-[(3,3,3-trifluoropropyl)amino]ethoxy}pyridin-3-yl)-1,2-thiazole-4-carboxamide] | 950 nM | 30 nM |
| Cc1nsc(Nc2cnc(C(F)(F)F)cn2)c1C(=O)Nc1ccc(OC2CCN(C(CF)CF)CC2)nc1 [Example 324, N-(6-{[1-(1,3-difluoropropan-2-yl)piperidin-4-yl]oxy}pyridin-3-yl)-3-methyl-5-{[5-(trifluoromethyl)pyrazin-2-yl]amino}-1,2-thiazole-4-carboxamide] | 870 nM | 71 nM |
| Cc1nsc(Nc2cnc(C(F)(F)F)cn2)c1C(=O)Nc1ccc(OCC2CCCN(CCF)C2)nc1 (stereo not shown) [Example 325, N-(6-{[1-(2-fluoroethyl)piperidin-3-yl]methoxy}pyridin-3-yl)-3-methyl-5-{[5-(trifluoromethyl)pyrazin-2-yl]amino}-1,2-thiazole-4-carboxamide] | 620 nM | 110 nM |

Now from value to molecule:

| IC50 (HeLa) | IC50 [1] | Structure (SMILES) |
| --- | --- | --- |
| 300 nM | 5.6 nM | Cc1nsc(Nc2cnc(C(F)(F)F)cn2)c1C(=O)Nc1ccc(OCC2CCCN(CC(F)(F)F)C2)nc1 (stereo not shown) [Example 326, 3-methyl-N-(6-{[1-(2,2,2-trifluoroethyl)piperidin-3-yl]methoxy}pyridin-3-yl)-5-{[5-(trifluoromethyl)pyrazin-2-yl]amino}-1,2-thiazole-4-carboxamide] |
| 370 nM | 6.3 nM | Cc1nsc(Nc2cnc(C(F)(F)F)cn2)c1C(=O)Nc1ccc(OCC2CCCN(CC(F)F)C2)nc1 (stereo not shown) [Example 327, N-(6-{[1-(2,2-difluoroethyl)piperidin-3-yl]methoxy}pyridin-3-yl)-3-methyl-5-{[5-(trifluoromethyl)pyrazin-2-yl]amino}-1,2-thiazole-4-carboxamide] |
| 360 nM | 1.8 nM | Cc1nsc(Nc2cnc(C(F)(F)F)cn2)c1C(=O)Nc1ccc(OCC2CCCN(CCC(F)(F)F)C2)nc1 (stereo not shown) [Example 328, 3-methyl-5-{[5-(trifluoromethyl)pyrazin-2-yl]amino}-N-(6-{[1-(3,3,3-trifluoropropyl)piperidin-3-yl]methoxy}pyridin-3-yl)-1,2-thiazole-4-carboxamide] |
